According to patent US6495588B2, “Scytonemin and methods of using thereof” (The Regents of the University of California, priority 2000, dated 2002):

Tested on: rheumatoid synovial fibroblasts (RSFs)
Assay: [3H]-thymidine incorporation assay, PDGF-BB stimulated rheumatoid synovial fibroblasts
Type: cell-based, human
Conditions: induced by platelet-derived growth factor (1 nM PDGF-BB); listed as SCY; read-out: IC50 rheumatoid synovial fibroblast proliferation
Method: To determine the effect of SCY on the proliferation of several cell types, proliferation was measured in response to growth factor or serum by tritiated thymidine uptake. Rheumatoid synovial fibroblasts (RSFs) obtained from Dr. Gene Mochan at PCOM (Philadelphia, Pa.), normal human lung fibroblasts (NHLFs) (Clonetics, San Diego, Calif.), human umbilical vein endothelial cells (HUVECs) (Clonetics, San Diego, Calif.), and Jurkat T cells (ATCC, Rockville, Md.) were plated in 96 well cell culture plates (Falcon, Franklin Lakes, N.J.). About 1.2×10^4 RSF cells/well and about 1×10^4 NHLF cells/well were plated in EMEM (Eagle's Minimum Essential Medium) (Sigma, St. Louis, Mo.) comprising 10 units penicillin-streptomycin (penstrep) (GibcoBRL, Grand Island, N.Y.) and 10% FBS. About 5×10^3 HUVEC cells/well were plated in CSC media (Cell Systems, Seattle, Wash.) with 10% FBS. Fibroblasts were allowed to adhere for about 6 to about 24 hours at 37° C., 5% CO2 and the media was changed to EMEM or CSC, 0.2% FBS and incubated for 24 hours. About 2×10^4 Jurkat T cells/well (ATCC, Rockville, Md.) were plated in RPMI (Gibco BRL, Grand Island, N.Y.), comprising 10% FBS and 10 units penstrep.
All cells were incubated with compound or vehicle (0.5% DMSO) for 15 minutes at room temperature. […] [^3H]-thymidine incorporation into the DNA was measured on a Packard Top-Count.

## scytonemin
  IC50: ~1.5 µM
